This is an account of results in ChEMBL document CHEMBL2016457, “Discovery of potent and orally bioavailable 17β-hydroxysteroid dehydrogenase type 3 inhibitors” (Bioorg Med Chem, 2012).

Assay [1] has as its target T1, 17-beta-hydroxysteroid dehydrogenase type 3 (Homo sapiens, UniProt P37058).
T1 sequence (P37058 whole entry): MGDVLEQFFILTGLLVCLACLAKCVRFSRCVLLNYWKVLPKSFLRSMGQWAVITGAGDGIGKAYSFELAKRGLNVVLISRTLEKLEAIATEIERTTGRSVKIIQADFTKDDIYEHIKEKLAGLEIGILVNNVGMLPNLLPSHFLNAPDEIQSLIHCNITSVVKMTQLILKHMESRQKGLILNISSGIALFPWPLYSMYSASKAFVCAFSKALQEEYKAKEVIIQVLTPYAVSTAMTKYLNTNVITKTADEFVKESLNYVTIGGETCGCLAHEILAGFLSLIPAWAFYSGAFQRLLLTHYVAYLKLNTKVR
Description: Inhibition of human recombinant 17-beta-HSD3 expressed in human HeLa cells using androstenedione as substrate preincubated for 30 mins prior substrate addition measured after 120 mins by spectrophotometry

For assay [2], the target named is T2, Estrogen receptor (Homo sapiens) (UniProt P03372).
T2 sequence (whole entry): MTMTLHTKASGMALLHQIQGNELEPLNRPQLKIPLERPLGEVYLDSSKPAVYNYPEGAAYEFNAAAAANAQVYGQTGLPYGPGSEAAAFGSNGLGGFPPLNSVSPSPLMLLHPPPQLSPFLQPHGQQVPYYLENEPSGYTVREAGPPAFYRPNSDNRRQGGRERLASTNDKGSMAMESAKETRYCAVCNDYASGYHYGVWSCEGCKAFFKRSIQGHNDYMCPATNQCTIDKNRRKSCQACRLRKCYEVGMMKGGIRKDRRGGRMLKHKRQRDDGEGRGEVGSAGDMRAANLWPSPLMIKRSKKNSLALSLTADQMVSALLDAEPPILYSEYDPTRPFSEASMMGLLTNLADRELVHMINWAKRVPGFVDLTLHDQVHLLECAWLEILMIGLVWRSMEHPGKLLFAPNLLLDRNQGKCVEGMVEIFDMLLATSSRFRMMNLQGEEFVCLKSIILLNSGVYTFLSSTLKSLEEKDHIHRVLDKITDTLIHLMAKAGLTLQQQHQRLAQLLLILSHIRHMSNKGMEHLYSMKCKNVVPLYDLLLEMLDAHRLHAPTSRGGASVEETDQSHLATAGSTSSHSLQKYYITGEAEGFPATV
In words: Antagonist activity at human ERalpha receptor expressed in human HeLa cells assessed as inhibition of DHT-induced response after 40 hrs by luciferase/beta-galactosidase-based reporter gene assay. The class given is functional, cell-based. (In a reporter assay the amount or activity of a reporter protein is the signal.)

Assay [3] concerns the target T3, Glucocorticoid receptor (Homo sapiens) (UniProt P04150).
T3 sequence (whole entry): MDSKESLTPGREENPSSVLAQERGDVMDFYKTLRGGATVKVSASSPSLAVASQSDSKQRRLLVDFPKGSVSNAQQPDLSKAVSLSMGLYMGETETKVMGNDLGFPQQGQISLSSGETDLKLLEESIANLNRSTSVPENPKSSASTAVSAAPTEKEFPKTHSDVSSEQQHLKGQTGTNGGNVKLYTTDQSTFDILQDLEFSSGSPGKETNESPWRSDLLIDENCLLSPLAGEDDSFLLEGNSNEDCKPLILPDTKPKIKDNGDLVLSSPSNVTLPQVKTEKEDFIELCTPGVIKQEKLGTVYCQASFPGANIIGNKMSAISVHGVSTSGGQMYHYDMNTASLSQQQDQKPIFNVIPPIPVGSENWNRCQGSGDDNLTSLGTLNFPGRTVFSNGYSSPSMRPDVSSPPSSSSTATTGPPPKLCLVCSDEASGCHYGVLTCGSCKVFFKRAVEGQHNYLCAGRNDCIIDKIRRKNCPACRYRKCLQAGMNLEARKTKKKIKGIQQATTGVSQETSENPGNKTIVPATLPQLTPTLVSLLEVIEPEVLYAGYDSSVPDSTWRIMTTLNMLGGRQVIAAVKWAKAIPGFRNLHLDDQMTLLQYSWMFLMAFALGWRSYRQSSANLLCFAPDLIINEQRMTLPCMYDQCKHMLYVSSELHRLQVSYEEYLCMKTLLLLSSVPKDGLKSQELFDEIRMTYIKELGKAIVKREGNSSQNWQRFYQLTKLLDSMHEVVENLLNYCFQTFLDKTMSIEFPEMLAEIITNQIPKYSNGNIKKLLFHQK
Briefly: Antagonist activity at human GR receptor expressed in human HeLa cells assessed as inhibition of DHT-induced response after 40 hrs by luciferase/beta-galactosidase-based reporter gene assay. Format: functional, cell-based.

In assay [4] the target is T3, Glucocorticoid receptor (Homo sapiens). In words: Agonist activity at human Glucocorticoid receptor expressed in human HeLa cells assessed as DHT-induced response after 40 hrs by luciferase/beta-galactosidase-based reporter gene assay. The class given is functional, cell-based.
In assay [5] the target is T4, Androgen receptor (Homo sapiens) (UniProt P10275).
T4 sequence (whole entry): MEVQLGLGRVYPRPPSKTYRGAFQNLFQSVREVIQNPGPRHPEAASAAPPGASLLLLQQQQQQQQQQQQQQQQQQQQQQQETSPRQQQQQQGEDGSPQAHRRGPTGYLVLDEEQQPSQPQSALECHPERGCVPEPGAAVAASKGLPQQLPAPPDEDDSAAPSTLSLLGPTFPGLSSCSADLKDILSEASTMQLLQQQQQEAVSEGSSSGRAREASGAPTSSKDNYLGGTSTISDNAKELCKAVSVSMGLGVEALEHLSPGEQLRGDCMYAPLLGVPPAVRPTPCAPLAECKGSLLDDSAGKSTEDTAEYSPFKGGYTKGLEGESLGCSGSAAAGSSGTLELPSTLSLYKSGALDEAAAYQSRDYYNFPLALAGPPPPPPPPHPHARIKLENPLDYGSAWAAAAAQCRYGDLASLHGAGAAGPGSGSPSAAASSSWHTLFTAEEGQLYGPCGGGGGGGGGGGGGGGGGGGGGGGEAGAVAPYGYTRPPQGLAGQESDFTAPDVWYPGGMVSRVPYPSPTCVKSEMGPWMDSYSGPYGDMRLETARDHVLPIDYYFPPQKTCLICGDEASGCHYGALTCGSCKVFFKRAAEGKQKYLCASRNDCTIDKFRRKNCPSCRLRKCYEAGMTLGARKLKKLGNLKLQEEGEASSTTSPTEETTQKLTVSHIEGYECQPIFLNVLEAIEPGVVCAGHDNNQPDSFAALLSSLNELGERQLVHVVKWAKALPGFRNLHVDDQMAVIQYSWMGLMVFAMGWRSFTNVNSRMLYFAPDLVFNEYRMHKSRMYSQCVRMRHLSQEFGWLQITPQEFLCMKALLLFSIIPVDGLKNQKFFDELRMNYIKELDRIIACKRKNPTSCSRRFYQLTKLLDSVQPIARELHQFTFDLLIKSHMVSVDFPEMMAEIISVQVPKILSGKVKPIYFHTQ
Briefly: Agonist activity at human androgen receptor expressed in human HeLa cells assessed as DHT-induced response after 40 hrs by luciferase/beta-galactosidase-based reporter gene assay. Format: functional, cell-based.

Assay [6] concerns the target T4, Androgen receptor (Homo sapiens). Briefly: Antagonist activity at human androgen receptor expressed in human HeLa cells assessed as inhibition of DHT-induced response after 40 hrs by luciferase/beta-galactosidase-based reporter gene assay. The class given is functional, cell-based.
The target in assay [7] is T5, 17-beta-hydroxysteroid dehydrogenase type 2 (Homo sapiens) (UniProt P37059).
T5 sequence (whole entry): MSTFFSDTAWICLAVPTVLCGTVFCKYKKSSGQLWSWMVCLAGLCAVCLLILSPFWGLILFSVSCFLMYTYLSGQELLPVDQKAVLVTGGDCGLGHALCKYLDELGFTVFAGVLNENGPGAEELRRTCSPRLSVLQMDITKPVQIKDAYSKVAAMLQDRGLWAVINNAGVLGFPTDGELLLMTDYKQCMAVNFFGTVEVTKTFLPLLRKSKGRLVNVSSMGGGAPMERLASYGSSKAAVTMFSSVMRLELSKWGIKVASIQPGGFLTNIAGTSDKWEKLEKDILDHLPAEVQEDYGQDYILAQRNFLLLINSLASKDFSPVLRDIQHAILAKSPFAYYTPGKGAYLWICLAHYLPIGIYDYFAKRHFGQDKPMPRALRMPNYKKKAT
Briefly: Inhibition of human recombinant 17-beta-HSD2 expressed in human HeLa cells using estradiol as substrate preincubated for 30 mins prior substrate addition measured after 120 mins by spectrophotometry. The class given is cell-based.

Assay [8] deals with T2, Estrogen receptor (Homo sapiens). In words: Agonist activity at human Estrogen receptor ERalpha expressed in human HeLa cells assessed as DHT-induced response after 40 hrs by luciferase/beta-galactosidase-based reporter gene assay. The class given is functional, cell-based.
Assay [9] has as its target T6, 17-beta-hydroxysteroid dehydrogenase type 1 (Homo sapiens) (UniProt P14061).
T6 sequence (whole entry): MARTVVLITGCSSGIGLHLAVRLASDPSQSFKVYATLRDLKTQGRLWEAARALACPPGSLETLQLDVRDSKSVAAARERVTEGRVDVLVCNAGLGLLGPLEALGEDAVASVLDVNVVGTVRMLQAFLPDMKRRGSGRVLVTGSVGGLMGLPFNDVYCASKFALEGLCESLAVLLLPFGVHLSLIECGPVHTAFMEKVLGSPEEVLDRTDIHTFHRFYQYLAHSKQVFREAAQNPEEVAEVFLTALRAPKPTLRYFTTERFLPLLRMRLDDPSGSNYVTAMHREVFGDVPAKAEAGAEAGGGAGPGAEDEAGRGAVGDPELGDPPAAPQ
In words: Inhibition of human recombinant 17-beta-HSD1 expressed in human HeLa cells using estrone as substrate preincubated for 30 mins prior substrate addition measured after 120 mins by spectrophotometry. The class given is cell-based.

Active and inactive are the calls of the source. No rule for the calls is given here.

As usually defined, the IC50 is the concentration that gives 50% inhibition. The low end stands for greater potency, the high end for weaker potency.

On to `Cc1ccc(N2C(=O)O/C(=C\c3ccc(O)c(Br)c3)C2=O)cn1`, for which, in assay [1], 0.067 µM corresponded to half-maximal inhibition (IC50). Moreover, the result in assay [2], in assay [3], in assay [4], in assay [5], in [6] and in assay [8] was inactive. Also, the inhibition entry in assay [7] and in [9] was “inactive” each time.
As to `COc1ccc(N2C(=O)/C(=C/c3ccc(O)c(Br)c3)SC2=S)cc1`, the outcome in assay [2], in [3], in [4], in [5], in [6] and in assay [8] was inactive. The inhibition entry in assay [7] and in assay [9] was “inactive” throughout.
Take `CC(=O)Nc1ccc(N2C(=O)O/C(=C\c3ccc(O)c(Br)c3)C2=O)cc1`: the IC50 in [1] is 0.057 µM. Moreover, the result in assay [2], in assay [3], in [4], in assay [5], in assay [6] and in assay [8] was inactive. Moreover, the inhibition result in assay [7] and in assay [9] was “inactive” each time.
The molecule `CSc1ccc(N2C(=O)O/C(=C\c3ccc(O)c(Br)c3)C2=O)cc1` returned an IC50 in [1] of 0.09 µM. Moreover, the outcome in assay [2], in assay [3], in assay [4], in assay [5], in [6] and in assay [8] was inactive. In addition, the inhibition entry in [7] and in [9] was “inactive” in each case.
In assay [1], `COC(=O)c1ccc(N2C(=O)O/C(=C\c3ccc(O)c(Br)c3)C2=O)cc1` registered an IC50 of 0.024 µM. The outcome in assay [2], in assay [3], in assay [4], in assay [5], in assay [6] and in assay [8] was inactive. Further, the inhibition result in [7] and in assay [9] was “inactive” throughout.
Molecule `O=C1O/C(=C\c2ccc(O)c(Br)c2)C(=O)N1c1cccnc1` registered a half-maximal inhibitory concentration (IC50) in assay [1] of 0.022 µM. Further, the outcome in assay [2], in assay [3], in [4], in assay [5], in assay [6] and in assay [8] was inactive. Besides, the inhibition result in [7] and in assay [9] was “inactive” in each case.
On to `COc1ccc(N2C(=O)/C(=C/c3ccc(O)cc3)OC2=S)cc1`, for which the IC50 in assay [1] was 0.121 µM. Further, the result in assay [2], in [3], in assay [4], in assay [5], in assay [6] and in assay [8] was inactive. Further, the inhibition entry in assay [7] and in assay [9] was “inactive” throughout.
As to `COc1ccc(N2C(=O)/C(=C/c3ccc(O)cn3)OC2=S)cc1`, in assay [1], the midpoint of inhibition, the IC50, lay at 0.09 µM. In addition, the outcome in assay [2], in [3], in [4], in assay [5], in assay [6] and in [8] was inactive. The inhibition result in assay [7] and in assay [9] was “inactive” throughout.
In the case of `COc1ccc(N2C(=O)O/C(=C\c3ccc(O)c(Br)c3)C2=O)cc1`, the outcome in [2], in assay [3], in assay [4], in assay [5], in assay [6] and in assay [8] was inactive. In addition, the inhibition entry in assay [7] and in assay [9] was “inactive” throughout.
